These results are taken from patent US8058427B2, “Coumarin compounds and their use for treating cancer” (National Health Research Institutes, priority 2008, dated 2011).

Type in all cases: cell-based
Assay [1] concerns HONE-1 (nasopharyngeal carcinoma). Briefly: Growth inhibition, methylene blue dye assay, HONE-1. As to conditions: Homo sapiens, HONE1, 72 h. As to the method:
(§1) Compound 1 was evaluated against 21 human tumor cell lines derived from nine cancer cell types: nasopharyngeal carcinoma (HONE-1, CPT 30, and HONE-cis6), cervical carcinoma (KB, KB-CPT100, KB7D, KB-1036, KB-S15, and KB-vin10), gastric carcinoma (TSGH), breast carcinoma (MCF-7), colorectal carcinoma (HT29), non-small cell lung carcinoma (H460), lymphoma (BJAB and H9), leukemia (CEM and HL 60), and hepatocellular carcinoma (Hep 3B, Hep G2, Huh 7, and Hcc36). […] Compound 140 was tested against the following 15 cell lines: HONE-1, CPT 30, and HONE-cis6, KB, KB-CPT100, KB7D, KB-1036, KB-S 15, and KB-vin10, TSGH, MCF-7, H460, BJAB, H9, and Hep G2. Compound 32 was tested against the following 8 cell lines: HONE-1, KB, TSGH, MCF-7, H460, BJAB, H9, and Hep G2.
(§2) Cells in logarithmic growth phase were cultured at a density of 5000 cells/ml/well in a 24-well plate. Drug-resistant cells were cultured in a medium free of test compounds for 3 days before use. The cells were exposed to various concentrations of a test compound for 72 h. The methylene blue dye assay was used to evaluate the effect of the test compound on cell growth, as has been described in Finlay et al., Anal. Biochem. 1984, 139, 272-277. The IC50 value resulting from 50% inhibition of cell growth was calculated graphically as a comparison with control growth.

Assay [2] has as its system CPT30 (nasopharyngeal carcinoma). In words: Growth inhibition, methylene blue dye assay, CPT30. As to conditions: Homo sapiens; CPT30, drug-resistant, camptothecin-driven selection, 72 h. The method, then:
as §1, §2

The subject of assay [3] is HONE-cis6 (nasopharyngeal carcinoma). Briefly: Growth inhibition, methylene blue dye assay, HONE-cis6. The note with it: Homo sapiens; HONE-cis6, drug-resistant, cisplatin-driven selection, 72 h. As to the method:
as §1, §2

For assay [4], the system named is KB (cervical carcinoma). In words: Growth inhibition, methylene blue dye assay, KB. The note with it: Homo sapiens, 72 h. As to the method: as §1, §2
The subject of assay [5] is KB-CPT100 (cervical carcinoma). In words: Growth inhibition, methylene blue dye assay, KB-CPT100. As to conditions: Homo sapiens, KBCPT100; KB-CPT100, drug-resistant, camptothecin-driven selection, 72 h. The method, then: as §1, §2
The test system of assay [6] is KB7D (cervical carcinoma). Briefly: Growth inhibition, methylene blue dye assay, KB7D. As to conditions: Homo sapiens, VP-16-driven selection, 72 h. As to the method:
as §1, §2

In assay [7] the test system is KB-1036 (cervical carcinoma). Briefly: Growth inhibition, methylene blue dye assay, KB-1036. As to conditions: Homo sapiens; KB-1036, D-501036 driven selection, 72 h. As to the method: as §1, §2
Assay [8] deals with KB-S15 (cervical carcinoma). Briefly: Growth inhibition, methylene blue dye assay, KB-S15. The note with it: Homo sapiens; KB-S15, drug-resistant, paclitaxel-driven selection, 72 h. As to the method: as §1, §2
Assay [9] has as its system KB-vin10 (cervical carcinoma). Briefly: Growth inhibition, methylene blue dye assay, KB-vin10. As to conditions: Homo sapiens; KB-vin10, vincristine-driven selection, 72 h. The method, then:
as §1, §2

Assay [10] concerns TSGH (gastric carcinoma). Briefly: Growth inhibition, methylene blue dye assay, TSGH. As to conditions: Homo sapiens, 72 h. As to the method:
as §1, §2

Assay [11] relates to MCF-7 (breast carcinoma). Briefly: Growth inhibition, methylene blue dye assay, MCF7. As to conditions: Homo sapiens, MCF7, 72 h. As to the method: as §1, §2
Assay [12] has as its system HT29 (colorectal carcinoma). Briefly: Growth inhibition, methylene blue dye assay, HT29. The note with it: Homo sapiens, HT-29, HT29, 72 h. The method, then: as §1, §2
The test system of assay [13] is H460 (non-small cell lung carcinoma). Briefly: Growth inhibition, methylene blue dye assay, H460. As to conditions: Homo sapiens, NCI-H460, H460, 72 h. The method, then: as §1, §2
Assay [14] relates to BJAB (lymphoma). In words: Growth inhibition, methylene blue dye assay, BJAB. As to conditions: Homo sapiens, 72 h. The method, then: as §1, §2
Assay [15] deals with H9 (lymphoma). In words: Growth inhibition, methylene blue dye assay, H9. As to conditions: Homo sapiens, H9, 72 h. The method, then: as §1, §2
Assay [16] has as its system CEM (leukemia). Briefly: Growth inhibition, methylene blue dye assay, CEM. As to conditions: Homo sapiens, 72 h. The method, then:
as §1, §2

Assay [17] deals with HL 60 (leukemia). In words: Growth inhibition, methylene blue dye assay, HL60. As to conditions: Homo sapiens, HL60, 72 h. The method, then: as §1, §2
The test system of assay [18] is Hep 3B (hepatocellular carcinoma). In words: Growth inhibition, methylene blue dye assay, Hep 3B. As to conditions: Homo sapiens, Hep3B, 72 h. The method, then: as §1, §2
The test system of assay [19] is Hep G2 (hepatocellular carcinoma). In words: Growth inhibition, methylene blue dye assay, Hep G2. The note with it: Homo sapiens, HepG2, Hep G2, 72 h. As to the method:
as §1, §2

In assay [20] the test system is Huh 7 (hepatocellular carcinoma). In words: Growth inhibition, methylene blue dye assay, Huh 7. As to conditions: Homo sapiens, Huh 7, 72 h. As to the method: as §1, §2
Assay [21] has as its system Hcc36 (hepatocellular carcinoma). Briefly: Growth inhibition, methylene blue dye assay, Hcc36. As to conditions: Homo sapiens, Hcc36, 72 h. The method, then:
as §1, §2

The test system of assay [22] is human tumor cell lines. In words: Growth inhibition, methylene blue dye assay, panel of tumor cell lines. As to conditions: most of the tested cell lines, 72 h. The method, then:
as §1, §2

Assay [23] has as its system Human cervical carcinoma KB cells. In words: Growth inhibition assay, KB cells (MTS). As to conditions: 72 h, read-out: IC50 (concentration causing 50% cell growth inhibition). The method, then:
Anticancer activities of the compounds of this invention were evaluated using a growth inhibition assay described in Kuo et al., Cancer Res. 2004, 64(13), 4621-4628.
Human cervical carcinoma KB cells were maintained in plastic dishes in DMEM medium supplemented with 10% fetal bovine serum. For in vitro treatment, tumor cells were seeded in […] of culture medium/well in 96-well plates to a final cell density of 6×10^3 cell/mL and incubated in a CO2 incubator at 37° C. for 24 h. The cells were treated with at least five different concentrations of a test compound, and incubated in a CO2 incubator at 37° C. for 72 h. The number of viable cells was estimated using MTS assay and absorbance was measured at 490 nm. For each test compound, dose-response curves were measured with at least five different drug concentrations, and the concentration causing 50% cell growth inhibition (IC50) compared with the control was calculated.

Where only a bound is given, the exact number is not on record here.

Consider `Cc1cc(=O)oc2c1ccc1oc(C(=O)c3ccccc3)c(-c3ccccc3)c12` [Compound 1, 8-benzoyl-4-methyl-9-phenyl-furo[2,3-h]chromen-2-one], for which the IC50 in assay [1] is 2 nM; in [2] it was 8.5 nM; in [3], 4.5 nM; in [4] it was 1.3 to 1.8 nM; in assay [5], 6.25 nM; in [6], 0.8 nM. Moreover, the IC50 amounted to 4 nM in assay [7]; 0.5 nM in assay [8]; 2.5 nM in [9]; 17 nM in [10]; 4 nM in [11]; 7 nM in assay [12]. For the same compound, the IC50 in assay [13] stood at 0.5 nM; in assay [14], 110 nM; in [15], 3.5 nM; in [16] it was 1000 nM; in assay [17], 1000 nM; in assay [18], 35000 nM. The IC50 in assay [19] is 3500 nM; in assay [20] it was 26700 nM; in [21], 10800 nM; in assay [22], under 10 nM.
Turning to `COc1ccc(C(=O)c2oc3ccc4c(C)cc(=O)oc4c3c2-c2ccccc2)cc1` [Compound 32], the IC50 in assay [1] was 55 nM; in assay [4] it was 41 nM; in [10] it was 150 nM; in [11], 150 nM; in assay [13] it was 40 nM; in assay [14], 45 nM. The IC50 is 124 nM in assay [15], 5500 nM in assay [19] and under 150 nM in assay [22].
On to `Cc1cc(=O)oc2c1ccc1oc(C(=O)c3ccccc3)c(/C=C/c3ccccc3)c12` [Compound 161], for which the IC50 in assay [23] was 101 to 999 nM.
On the same count and under the same terms, with `Cc1cc(=O)oc2c1ccc1oc(C(=O)c3ccc(OCCN4CCOCC4)cc3)c(-c3ccccc3)c12` [Compound 265] the figure was 1000 to 10000 nM.
Same read-out and setting: as for `Cc1cc(=O)oc2c1ccc1oc(C(=O)c3cc(-c4ccc(Cl)cc4)no3)c(-c3ccccc3)c12` [Compound 112], the figure is 1000 to 10000 nM; as for `COc1ccc(-c2c(C(=O)c3ccccc3)oc3ccc4c(C)cc(=O)oc4c23)cc1` [Compound 248], 101 to 999 nM.
On the same count and under the same terms, with `Cc1cc(=O)oc2c1ccc1oc(C(=O)c3ccc(OCCN(C)C)cc3)c(-c3ccccc3)c12` [Compound 266] the figure was 1000 to 10000 nM; with `COc1ccc(C(=O)c2oc3ccc4c(C)cc(=O)oc4c3c2-c2ccc(Cl)cc2)cc1` [Compound 223], 1000 to 10000 nM; with `Cc1cc(=O)oc2c1ccc1oc(C(O)c3ccccc3)cc12` (stereo not drawn) [Compound 226], 101 to 999 nM.
In the case of `Cc1cc(=O)oc2c1ccc1oc(C(=O)c3cccc(OCCCN4CCN(C)CC4)c3)c(-c3ccccc3)c12` [Compound 90], in assay [23], the IC50 lay within 101 to 999 nM.
The same measure, in the same setting: as for `Cc1cc(=O)oc2c1ccc1oc(C(=O)c3ccccc3)c(C3CCCCC3)c12` [Compound 165], the figure is 101 to 999 nM; as for `Cc1cc(=O)oc2c1ccc1oc(C(=O)c3cccc(OCCO[Si](C)(C)C(C)(C)C)c3)c(-c3ccccc3)c12` [Compound 189], 101 to 999 nM.
The same measure, in the same setting: with `Cc1cc(=O)oc2c1cc(C)c1oc(C(=O)c3ccccc3)c(-c3ccccc3)c12` [Compound 8] the figure was 1000 to 10000 nM.
Same read-out and setting: with `Cc1ccc(C(=O)c2oc3ccc4c(C)cc(=O)oc4c3c2-c2ccccc2)cc1` [Compound 41] the figure was 101 to 999 nM.
For the compound `Cc1cc(=O)oc2c1ccc1oc(C(=O)c3ccccc3)c(-c3ccc(Br)cc3)c12` [Compound 140], the IC50 in assay [1] is 3 nM; in assay [2], 10.5 nM; in [3], 10 nM; in assay [4], 7.7 nM; in assay [5], 9 nM; in assay [6], 8 nM. Moreover, the IC50 came to 13 nM in assay [7]; 10 nM in [8]; 10 nM in assay [9]; 41 nM in assay [10]; 13 nM in assay [11]; 3 nM in [13]. Besides, the IC50 is 60 nM in [14], 20 nM in assay [15], 2600 nM in assay [19] and under 10 nM in [22].
As to `Cc1ccc(C(=O)c2oc3ccc4c(C)cc(=O)oc4c3c2-c2ccc(Br)cc2)cc1` [Compound 212], the IC50 in assay [23] lay within 1000 to 10000 nM.
The same measure, in the same setting: with `Cc1cc(=O)oc2c1ccc1oc(C(=O)c3cccc([N+](=O)[O-])c3)c(-c3ccccc3)c12` [Compound 66] the figure was 101 to 999 nM; with `Cc1cc(=O)oc2c1ccc1oc(C(=O)c3ccccc3)c(-c3cccc(F)c3)c12` [Compound 133], 101 to 999 nM.
`CCCCCCCCCCOc1cccc(C(=O)c2oc3ccc4c(C)cc(=O)oc4c3c2-c2ccccc2)c1` [Compound 244]: the IC50 in assay [23] was in the range of 101 to 999 nM.
On the same count and under the same terms, as for `Cc1c(Cc2ccccc2)c(=O)oc2c1ccc1oc(C(=O)c3ccccc3)c(-c3ccccc3)c12` [Compound 19], the figure is 1000 to 10000 nM; as for `Cc1cc(=O)oc2c1ccc1oc(C(=O)c3ccc4ccccc4c3)c(-c3ccc(Br)cc3)c12` [Compound 208], 1000 to 10000 nM.
Still for that read-out and setting: as for `O=C(c1ccccc1)c1oc2ccc3c4ccccc4c(=O)oc3c2c1-c1ccccc1` [Compound 22], the figure is 1000 to 10000 nM.
On to `CCN(CCO)CCCOc1cccc(C(=O)c2oc3ccc4c(C)cc(=O)oc4c3c2-c2ccccc2)c1` [Compound 251], for which the IC50 in assay [23] fell in the range of 101 to 999 nM.
On the same count and under the same terms, with `CCCc1c(C(=O)c2ccccc2)oc2ccc3c(C)cc(=O)oc3c12` [Compound 155] the figure was 101 to 999 nM; with `Cc1cc(=O)oc2c1ccc1oc(C(=O)c3ccc(F)cc3)c(-c3ccccc3)c12` [Compound 46], 101 to 999 nM.
